Experimental data from ChEMBL document CHEMBL1141148, “Antidiabetic activity of passive nonsteroidal glucocorticoid receptor modulators” (J Med Chem, 2005).

Assays:
[1] = Half life period of the compound in rat liver microsomes was determined; type: ADME, Microsome
[2] = Half life period of the compound in rat hepatocytes was determined; type: ADME, cell-based, Liver, Hepatocyte
Progesterone receptor = target: T1, Progesterone receptor (Homo sapiens, UniProt P06401); test: Inhibition of human progesterone receptor
T1 sequence (P06401 whole entry): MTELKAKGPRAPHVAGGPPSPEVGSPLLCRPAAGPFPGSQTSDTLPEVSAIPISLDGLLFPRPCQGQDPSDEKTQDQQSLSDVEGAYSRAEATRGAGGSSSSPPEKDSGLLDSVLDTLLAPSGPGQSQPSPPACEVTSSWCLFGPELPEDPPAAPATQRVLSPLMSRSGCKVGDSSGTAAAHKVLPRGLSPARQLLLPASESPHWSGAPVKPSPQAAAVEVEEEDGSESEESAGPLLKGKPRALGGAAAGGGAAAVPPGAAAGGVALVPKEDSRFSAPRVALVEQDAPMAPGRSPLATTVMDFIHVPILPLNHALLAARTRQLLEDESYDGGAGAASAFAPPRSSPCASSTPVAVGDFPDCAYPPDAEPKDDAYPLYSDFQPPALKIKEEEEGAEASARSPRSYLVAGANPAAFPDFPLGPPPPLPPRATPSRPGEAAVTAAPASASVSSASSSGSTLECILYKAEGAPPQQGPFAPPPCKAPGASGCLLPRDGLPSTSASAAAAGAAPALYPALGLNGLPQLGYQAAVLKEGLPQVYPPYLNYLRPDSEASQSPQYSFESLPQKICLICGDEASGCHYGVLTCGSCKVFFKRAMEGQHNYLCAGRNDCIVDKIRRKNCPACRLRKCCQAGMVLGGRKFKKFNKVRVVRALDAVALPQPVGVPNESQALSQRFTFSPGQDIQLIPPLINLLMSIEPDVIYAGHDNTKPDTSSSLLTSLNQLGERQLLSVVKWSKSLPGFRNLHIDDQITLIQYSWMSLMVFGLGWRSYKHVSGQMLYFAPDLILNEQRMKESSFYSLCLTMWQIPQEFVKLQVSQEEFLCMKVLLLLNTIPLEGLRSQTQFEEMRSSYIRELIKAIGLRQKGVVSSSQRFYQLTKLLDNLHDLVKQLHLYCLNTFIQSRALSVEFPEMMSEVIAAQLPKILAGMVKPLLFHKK

[3] = target: T2, Mineralocorticoid receptor (Homo sapiens, UniProt P08235); test: Inhibition of human mineralocorticoid receptor
T2 sequence (P08235 whole entry): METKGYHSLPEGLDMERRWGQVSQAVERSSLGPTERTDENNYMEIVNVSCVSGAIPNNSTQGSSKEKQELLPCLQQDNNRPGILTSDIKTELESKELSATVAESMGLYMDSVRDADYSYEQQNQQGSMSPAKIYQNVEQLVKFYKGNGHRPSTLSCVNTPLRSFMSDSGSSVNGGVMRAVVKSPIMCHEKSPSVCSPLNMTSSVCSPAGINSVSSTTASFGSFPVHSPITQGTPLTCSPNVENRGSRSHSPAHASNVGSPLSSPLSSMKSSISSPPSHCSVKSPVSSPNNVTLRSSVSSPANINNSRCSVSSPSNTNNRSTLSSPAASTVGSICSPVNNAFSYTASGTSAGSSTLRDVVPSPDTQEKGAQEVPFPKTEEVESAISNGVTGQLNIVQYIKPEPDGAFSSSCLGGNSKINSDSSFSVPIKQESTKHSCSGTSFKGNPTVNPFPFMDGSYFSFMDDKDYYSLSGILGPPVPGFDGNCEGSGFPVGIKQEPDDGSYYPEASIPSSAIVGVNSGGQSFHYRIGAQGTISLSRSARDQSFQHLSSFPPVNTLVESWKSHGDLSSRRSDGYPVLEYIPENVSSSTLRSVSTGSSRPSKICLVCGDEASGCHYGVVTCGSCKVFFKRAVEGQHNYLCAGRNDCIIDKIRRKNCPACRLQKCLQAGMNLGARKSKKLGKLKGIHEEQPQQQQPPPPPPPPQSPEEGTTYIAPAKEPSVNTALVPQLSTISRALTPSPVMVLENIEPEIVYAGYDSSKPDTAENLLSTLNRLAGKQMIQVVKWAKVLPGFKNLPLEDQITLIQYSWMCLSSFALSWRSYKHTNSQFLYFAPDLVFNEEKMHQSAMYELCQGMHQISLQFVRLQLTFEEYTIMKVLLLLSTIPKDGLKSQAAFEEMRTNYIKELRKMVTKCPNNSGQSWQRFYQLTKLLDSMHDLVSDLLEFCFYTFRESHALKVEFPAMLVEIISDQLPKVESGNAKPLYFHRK

Androgen receptor = target: T3, Androgen receptor (Homo sapiens, UniProt P10275)
T3 sequence (P10275 whole entry): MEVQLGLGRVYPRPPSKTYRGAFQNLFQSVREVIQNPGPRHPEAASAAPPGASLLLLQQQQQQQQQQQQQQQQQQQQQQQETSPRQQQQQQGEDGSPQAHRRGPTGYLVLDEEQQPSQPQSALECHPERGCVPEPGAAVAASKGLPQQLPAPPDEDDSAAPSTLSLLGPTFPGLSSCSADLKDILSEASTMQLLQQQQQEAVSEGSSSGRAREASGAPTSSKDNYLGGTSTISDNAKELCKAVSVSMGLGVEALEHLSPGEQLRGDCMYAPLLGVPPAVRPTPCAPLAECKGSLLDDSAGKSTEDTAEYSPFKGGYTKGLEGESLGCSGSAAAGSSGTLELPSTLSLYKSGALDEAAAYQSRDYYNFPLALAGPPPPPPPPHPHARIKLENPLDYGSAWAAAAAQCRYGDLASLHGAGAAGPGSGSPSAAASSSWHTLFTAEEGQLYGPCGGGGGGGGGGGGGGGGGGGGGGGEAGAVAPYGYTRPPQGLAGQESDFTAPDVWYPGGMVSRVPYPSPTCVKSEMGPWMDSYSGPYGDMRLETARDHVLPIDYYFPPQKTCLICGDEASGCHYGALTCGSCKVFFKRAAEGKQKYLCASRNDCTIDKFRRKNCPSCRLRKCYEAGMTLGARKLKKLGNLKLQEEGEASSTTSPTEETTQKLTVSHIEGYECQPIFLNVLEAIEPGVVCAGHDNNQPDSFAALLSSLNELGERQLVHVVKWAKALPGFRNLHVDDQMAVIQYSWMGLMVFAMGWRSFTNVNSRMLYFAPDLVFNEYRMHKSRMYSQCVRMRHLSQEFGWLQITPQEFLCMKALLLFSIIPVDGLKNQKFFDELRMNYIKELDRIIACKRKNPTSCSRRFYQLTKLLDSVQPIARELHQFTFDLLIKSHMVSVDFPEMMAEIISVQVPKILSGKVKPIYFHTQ

Structure (SMILES)	half-life [1] [h]	half-life [2] [h]	IC50 (Progesterone receptor) [nM]	IC50 [3] [nM]	IC50 (Androgen receptor) [nM]
CC#C[C@]1(O)CC[C@H]2[C@@H]3CCC4=CC(=O)CC[C@]4(Cc4ccc(C)cc4)C3=CC[C@@]21C	0.33	< 0.2	2400	6300	6500
Cc1c(NS(C)(=O)=O)cccc1N(Cc1ccccc1)Cc1ccc(Oc2ccc(OCC(=O)O)cc2)cc1	4.6	9.9	1700	690	11700
Cc1c(NS(C)(=O)=O)cccc1N(Cc1ccc(Oc2ccc(F)c(OCC(=O)O)c2)cc1)Cc1ccc(F)cc1F	4.1	6.5	180	–	–
Cc1c(NS(C)(=O)=O)cccc1N(Cc1ccc(Oc2ccc(Cl)c(OCC(=O)O)c2)cc1)Cc1ccc(F)cc1F	–	–	150	1000	3600
Cc1c(NS(C)(=O)=O)cccc1N(Cc1ccccc1)Cc1ccc(Oc2cccc(OCCCC(=O)NCCCC(=O)O)c2)cc1	–	–	550	120	1600
